Laboratory results published in patent publication US20110301245A1, “(R)-2-(3,4-DIMETHOXYPHENOL)-2-ISOPROPYL-6-AZAHEPTANITRIL FORMULAITONS, ANDTHE USE OF SUCH FORMULATIONS IN THE TREATMENT OF CONDITIONS MEDIATED BY THE SEROTONIN TRANSPORTER” (AGI THERAPEUTICS, PLC, priority 2010, published 2011).
“And” between values parts separate entries of the source, which are not always exact repeats. Equal entries are not always repeated. Where two headings read alike, the source gives them in different places.

What was measured:
5-HT transporter (h) = target: T1, 5-HT transporter (h) (Homo sapiens, UniProt P31645); experiment: 5-HT transporter (h) antagonist radioligand binding assay, human recombinant CHO cells, [3H]imipramine
T1 construct: expressed in transfected cells; host or cells: CHO cells
T1 sequence (P31645 whole entry): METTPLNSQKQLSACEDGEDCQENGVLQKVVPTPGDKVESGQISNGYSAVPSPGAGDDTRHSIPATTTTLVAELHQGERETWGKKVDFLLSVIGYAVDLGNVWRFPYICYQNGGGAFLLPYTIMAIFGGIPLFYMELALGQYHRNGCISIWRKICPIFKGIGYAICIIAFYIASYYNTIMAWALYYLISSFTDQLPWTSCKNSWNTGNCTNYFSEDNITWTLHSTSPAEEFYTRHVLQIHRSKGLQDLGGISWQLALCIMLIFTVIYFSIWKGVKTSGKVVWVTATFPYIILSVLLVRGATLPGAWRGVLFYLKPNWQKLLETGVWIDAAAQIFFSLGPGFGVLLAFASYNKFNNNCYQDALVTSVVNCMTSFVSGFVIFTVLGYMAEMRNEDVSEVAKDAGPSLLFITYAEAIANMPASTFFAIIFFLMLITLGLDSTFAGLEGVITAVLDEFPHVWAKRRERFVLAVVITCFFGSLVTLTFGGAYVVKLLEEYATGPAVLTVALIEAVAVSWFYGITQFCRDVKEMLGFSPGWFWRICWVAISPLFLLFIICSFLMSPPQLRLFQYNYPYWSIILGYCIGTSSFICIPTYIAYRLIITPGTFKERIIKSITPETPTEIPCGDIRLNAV
From the text: For its discussion of the assay method, Tatsumi et al. is incorporated herein by reference in its entirety.
The specific ligand binding to the receptors is defined as the difference between the total binding and the nonspecific binding determined in the presence of an excess of unlabelled ligand.
The results are expressed as a percent of control specific binding ((measured specific binding/control specific binding)×100) and as a percent inhibition of control specific binding (100−((measured specific binding/control specific binding)×100)) obtained in the presence of (R)-2-(3,4-dimethoxyphenol)-2-isopropyl-6-azaheptanitril.
(§1) The IC50 values (concentration causing a half-maximal inhibition of control specific binding) and Hill coefficients (nH) were determined by non-linear regression analysis of the competition curves generated with mean replicate values using Hill equation curve fitting (Y=D+[(A−D)/(1+(C/C50)^nH)], where Y=specific binding, D=minimum specific binding, A=maximum specific binding, C=compound concentration, C50=IC50, and nH=slope factor).
The inhibition constants (Ki) were calculated using the Cheng Prusoff equation (Ki=IC50/(1+(L/KD)), where L=concentration of radioligand in the assay, and KD=affinity of the radioligand for the receptor).

[1] = target: T2, 5-HT uptake (rat brain synaptosomes) (Rattus norvegicus, UniProt P31652); experiment: In vitro 5-HT uptake assay using rat brain synaptosomes; format: biochemical; details: for % of Control Values, 1st / % of Control Values, 2nd / % of Control Values, Mean: Table 2-2
T2 construct: from tissue; host or cells: rat brain synaptosomes
T2 sequence (P31652 whole entry): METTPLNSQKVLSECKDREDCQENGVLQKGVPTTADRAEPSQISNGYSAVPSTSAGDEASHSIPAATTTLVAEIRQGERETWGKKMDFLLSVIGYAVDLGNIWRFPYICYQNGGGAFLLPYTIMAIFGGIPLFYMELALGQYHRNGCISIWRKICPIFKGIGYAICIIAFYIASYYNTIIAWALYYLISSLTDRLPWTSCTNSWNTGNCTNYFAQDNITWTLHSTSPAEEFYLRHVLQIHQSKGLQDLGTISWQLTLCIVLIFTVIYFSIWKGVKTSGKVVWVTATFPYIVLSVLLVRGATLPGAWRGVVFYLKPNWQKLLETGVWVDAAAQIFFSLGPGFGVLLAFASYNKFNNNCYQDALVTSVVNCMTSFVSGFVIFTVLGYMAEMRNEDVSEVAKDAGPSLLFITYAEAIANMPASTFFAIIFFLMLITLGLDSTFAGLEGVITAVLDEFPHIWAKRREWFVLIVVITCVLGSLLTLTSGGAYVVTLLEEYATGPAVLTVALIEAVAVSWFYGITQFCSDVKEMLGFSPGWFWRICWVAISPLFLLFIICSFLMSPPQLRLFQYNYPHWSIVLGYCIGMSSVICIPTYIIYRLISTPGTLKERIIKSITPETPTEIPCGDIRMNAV
Protocol: Briefly, the uptake assay was performed using rat brain synaptosomes according to the method generally described in Perovic and Muller, Arzneim-Forsch. […] For its disclosure of the above-noted assay, Perovic and Muller is incorporated herein by reference in its entirety.
The results are expressed as a percent of control specific activity ((measured specific activity/control specific activity)×100) obtained in the presence of (R)-2-(3,4-dimethoxyphenol)-2-isopropyl-6-azaheptanitril.
as §1, with “activity)” for “binding)”, “inhibition” for “competition”, “activity,” for “binding,”, “C50=IC50” for “C50=IC50,”

[2] = Terminal plasma drug concentrations by HPLC in the PAH study; format: in vivo; details: rat, 5 mg/kg IP daily for 21 days
Protocol: (§2) All animals were then housed (allowed food and water ad lib). The animals were anaesthetized 21 days after injection, and pulmonary arterial pressure was measured and expressed as mean pulmonary arterial pressure (mPAP mmHg). A terminal sample was also obtained and used to obtain terminal drug concentrations. Following exsanguination, cardiac tissues were excised and used to assess the wet weight of the right cardiac ventricle.

[3] = tested on: male wistar rats with Monocrotaline-induced PAH; experiment: Inhibition of PAH development, monocrotaline-induced pulmonary arterial hypertension; format: in vivo, rat; details: Mct 60 mg/kg sc, 5 mg/kg IP daily for 21 days
Protocol: Experimental pulmonary arterial hypertension (PAH) was induced in male wistar rats (Charles River Laboratories) weighing between 250 and 300 g by subcutaneous injection of 60 mg/kg Monocrotaline (Met) on Day 1. The Mct (Sigma Aldrich) was dissolved in 1N HCl at a concentration of 300 mg/ml as per M. Rey et al., Current Protocols in Pharmacology, 5.56.1-5.56.11, September 2009, which document is incorporated by reference herein in its entirety. Mct was then neutralized by adding 1N NaOH and diluted with sterile distilled water to a final concentration of 20 mg/ml. An injection volume of 3 ml/kg was used to achieve the 60 mg/kg dose.
A total of 44 rats were injected as follows: 15 rats were injected subcutaneously with Mct (untreated PAH controls), 15 rats were injected subcutaneously with Mct followed by daily IP injection with 5 mg/kg (R)-2-(3,4-dimethoxyphenol)-2-isopropyl-6-azaheptanitril for 21 days (R-D617 treated group), and 14 rats were injected subcutaneously with neutralized solvent having no Mct (non-PAH controls (sham)).
as §2, with “Following exsanguination, cardiac tissues were excised and used to assess the wet weight of the right cardiac ventricle.” left out

[4] = tested on: other receptors tested, including calcium channels; experiment: Single high concentration test on other receptors (data not included); format: binding; details: single high concentration 1×10^−5M
[5] = % of the potency of verapamil; cited from earlier work
p-glycoprotein = p-glycoprotein (Homo sapiens, UniProt P08183); details: prior non-clinical studies; cited from earlier work
Chain of p-glycoprotein (P08183 whole entry): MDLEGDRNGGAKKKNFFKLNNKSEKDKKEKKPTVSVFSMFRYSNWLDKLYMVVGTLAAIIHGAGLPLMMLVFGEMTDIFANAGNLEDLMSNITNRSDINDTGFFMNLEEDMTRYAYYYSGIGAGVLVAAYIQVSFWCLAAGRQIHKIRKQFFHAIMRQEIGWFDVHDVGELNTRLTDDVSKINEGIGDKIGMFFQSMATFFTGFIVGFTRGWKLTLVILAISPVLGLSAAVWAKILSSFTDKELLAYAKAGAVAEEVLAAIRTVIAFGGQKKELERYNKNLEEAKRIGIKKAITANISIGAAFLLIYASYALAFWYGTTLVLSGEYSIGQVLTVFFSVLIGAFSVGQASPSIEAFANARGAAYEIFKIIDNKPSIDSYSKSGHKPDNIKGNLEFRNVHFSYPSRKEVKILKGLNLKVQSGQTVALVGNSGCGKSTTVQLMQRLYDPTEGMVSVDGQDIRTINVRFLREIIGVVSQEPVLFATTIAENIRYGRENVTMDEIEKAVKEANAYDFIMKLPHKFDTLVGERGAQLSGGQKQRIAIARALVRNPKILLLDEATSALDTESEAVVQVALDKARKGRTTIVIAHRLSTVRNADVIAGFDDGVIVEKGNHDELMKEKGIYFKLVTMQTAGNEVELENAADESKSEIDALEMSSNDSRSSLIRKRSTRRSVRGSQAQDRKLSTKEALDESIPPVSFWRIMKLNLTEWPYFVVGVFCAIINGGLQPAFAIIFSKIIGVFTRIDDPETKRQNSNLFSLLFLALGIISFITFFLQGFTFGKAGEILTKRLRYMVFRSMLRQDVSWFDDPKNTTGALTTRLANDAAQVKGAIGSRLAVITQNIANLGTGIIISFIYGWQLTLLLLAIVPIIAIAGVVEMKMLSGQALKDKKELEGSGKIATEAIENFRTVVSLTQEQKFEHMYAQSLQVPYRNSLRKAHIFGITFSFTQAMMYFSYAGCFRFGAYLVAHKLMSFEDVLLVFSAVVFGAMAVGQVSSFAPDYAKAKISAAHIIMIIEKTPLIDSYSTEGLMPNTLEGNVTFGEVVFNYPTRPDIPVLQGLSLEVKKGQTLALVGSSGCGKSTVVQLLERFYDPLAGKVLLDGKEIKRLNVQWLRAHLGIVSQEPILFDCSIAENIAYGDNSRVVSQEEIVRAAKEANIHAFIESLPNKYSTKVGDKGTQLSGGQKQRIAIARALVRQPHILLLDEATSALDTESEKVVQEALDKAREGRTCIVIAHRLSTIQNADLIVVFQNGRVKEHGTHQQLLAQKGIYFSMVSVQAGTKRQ

CYP = details: prior non-clinical studies; cited from earlier work
HERG = HERG (Homo sapiens, UniProt Q12809); details: prior non-clinical studies; cited from earlier work
Chain of HERG (Q12809 whole entry): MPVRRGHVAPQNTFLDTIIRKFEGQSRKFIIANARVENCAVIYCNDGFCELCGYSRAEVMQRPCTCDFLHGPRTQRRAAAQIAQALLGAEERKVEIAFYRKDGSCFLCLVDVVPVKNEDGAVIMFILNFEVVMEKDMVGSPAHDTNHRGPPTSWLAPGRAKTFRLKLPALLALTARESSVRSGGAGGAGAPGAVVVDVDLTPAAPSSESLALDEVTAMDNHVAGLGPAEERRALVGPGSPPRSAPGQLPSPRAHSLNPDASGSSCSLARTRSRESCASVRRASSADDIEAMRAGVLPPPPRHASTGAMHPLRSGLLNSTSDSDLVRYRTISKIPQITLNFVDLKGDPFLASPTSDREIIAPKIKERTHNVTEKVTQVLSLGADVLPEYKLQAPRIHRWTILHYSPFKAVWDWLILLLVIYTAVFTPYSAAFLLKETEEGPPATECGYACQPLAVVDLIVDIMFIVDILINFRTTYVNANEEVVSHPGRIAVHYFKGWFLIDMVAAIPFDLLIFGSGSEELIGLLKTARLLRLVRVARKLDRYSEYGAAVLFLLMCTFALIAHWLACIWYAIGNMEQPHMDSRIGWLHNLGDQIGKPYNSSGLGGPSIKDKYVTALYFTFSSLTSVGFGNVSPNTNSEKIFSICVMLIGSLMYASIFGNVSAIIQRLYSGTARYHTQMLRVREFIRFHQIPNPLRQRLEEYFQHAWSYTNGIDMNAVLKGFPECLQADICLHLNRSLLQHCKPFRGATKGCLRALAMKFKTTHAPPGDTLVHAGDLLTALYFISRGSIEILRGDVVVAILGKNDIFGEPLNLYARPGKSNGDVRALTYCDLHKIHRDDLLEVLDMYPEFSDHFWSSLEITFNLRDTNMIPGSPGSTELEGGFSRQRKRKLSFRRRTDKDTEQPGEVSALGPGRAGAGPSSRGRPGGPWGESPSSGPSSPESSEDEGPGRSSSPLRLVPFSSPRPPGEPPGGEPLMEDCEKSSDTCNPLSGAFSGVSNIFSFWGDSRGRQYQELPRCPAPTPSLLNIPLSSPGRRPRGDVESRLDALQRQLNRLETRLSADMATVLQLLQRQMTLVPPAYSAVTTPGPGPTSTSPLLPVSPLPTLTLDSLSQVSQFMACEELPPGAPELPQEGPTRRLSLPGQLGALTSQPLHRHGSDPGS

CNCCC[C@](C#N)(c1ccc(OC)c(OC)c1)C(C)C [(R)-2-(3,4-dimethoxyphenol)-2-isopropyl-6-azaheptanitril]
% Inhibition of Control Specific Binding (5-HT transporter (h); Table 1-1, test concentration 1.0E−05 M): 100% | % of Control Specific Binding, 1st (5-HT transporter (h); Table 1-2, 1.0E−05 M): −0.6% | % of Control Specific Binding, 2nd (5-HT transporter (h); Table 1-2, 1.0E−05 M): 0.8% | % of Control Specific Binding, Mean (5-HT transporter (h); Table 1-2, 1.0E−05 M): 0.1% | nH (Hill coefficient) (5-HT transporter (h); Table 1-4): 1.0 | Ki (5-HT transporter (h); Table 1-4, Cheng Prusoff): 0.022 µM | % of Control Specific Binding, 1st (5-HT transporter (h); Table 1-5, 1.0E−05 M): 0.5% | % of Control Specific Binding, 2nd (5-HT transporter (h); Table 1-5, 1.0E−05 M): 0.2% | % of Control Specific Binding, Mean (5-HT transporter (h); Table 1-5, 1.0E−05 M): 0.3% | % of Control Specific Binding, 1st (5-HT transporter (h); Table 1-5, 1.0E−06 M): 5.9% | % of Control Specific Binding, 2nd (5-HT transporter (h); Table 1-5, 1.0E−06 M): 3.7% | % of Control Specific Binding, Mean (5-HT transporter (h); Table 1-5, 1.0E−06 M): 4.8% | % of Control Specific Binding, 1st (5-HT transporter (h); Table 1-5, 1.0E−07 M): 36.5% | % of Control Specific Binding, 2nd (5-HT transporter (h); Table 1-5, 1.0E−07 M): 32.5% | % of Control Specific Binding, Mean (5-HT transporter (h); Table 1-5, 1.0E−07 M): 34.5% | % of Control Specific Binding, 1st (5-HT transporter (h); Table 1-5, 1.0E−08 M): 83.3% | % of Control Specific Binding, 2nd (5-HT transporter (h); Table 1-5, 1.0E−08 M): 84.8% | % of Control Specific Binding, Mean (5-HT transporter (h); Table 1-5, 1.0E−08 M): 84.0% | % of Control Specific Binding, 1st (5-HT transporter (h); Table 1-5, 3.0E−07 M): 15.3% | % of Control Specific Binding, 2nd (5-HT transporter (h); Table 1-5, 3.0E−07 M): 13.1% | % of Control Specific Binding, Mean (5-HT transporter (h); Table 1-5, 3.0E−07 M): 14.2% | % of Control Specific Binding, 1st (5-HT transporter (h); Table 1-5, 3.0E−08 M): 66.6% | % of Control Specific Binding, 2nd (5-HT transporter (h); Table 1-5, 3.0E−08 M): 58.0% | % of Control Specific Binding, Mean (5-HT transporter (h); Table 1-5, 3.0E−08 M): 62.3% | % of Control Specific Binding, 1st (5-HT transporter (h); Table 1-5, 3.0E−09 M): 101.5% | % of Control Specific Binding, 2nd (5-HT transporter (h); Table 1-5, 3.0E−09 M): 88.4% | % of Control Specific Binding, Mean (5-HT transporter (h); Table 1-5, 3.0E−09 M): 94.9% | % of Control Specific Binding, 1st (5-HT transporter (h); Table 1-5, 3.0E−10 M): 104.1% | % of Control Specific Binding, 2nd (5-HT transporter (h); Table 1-5, 3.0E−10 M): 102.0% | % of Control Specific Binding, Mean (5-HT transporter (h); Table 1-5, 3.0E−10 M): 103.1% | IC50 (5-HT transporter (h); read-out: IC50 for inhibition of binding at the serotonin transporter): 0.047 µM | inhibition of the serotonin transporter (5-HT transporter (h); single high concentration 1×10^−5M): 100% | IC50 ([1]; Table 2-1, 5-HT uptake): 0.24 µM | % of Control Values, 1st ([1]; 1.0E−05 M): 1.0% | % of Control Values, 2nd ([1]; 1.0E−05 M): 5.2% | % of Control Values, Mean ([1]; 1.0E−05 M): 3.1% | % of Control Values, 1st ([1]; 1.0E−06 M): 22.1% | % of Control Values, 2nd ([1]; 1.0E−06 M): 21.1% | % of Control Values, Mean ([1]; 1.0E−06 M): 21.6% | % of Control Values, 1st ([1]; 1.0E−07 M): 79.8% | % of Control Values, 2nd ([1]; 1.0E−07 M): 81.9% | % of Control Values, Mean ([1]; 1.0E−07 M): 80.8% | % of Control Values, 1st ([1]; 1.0E−08 M): 101.7% | % of Control Values, 2nd ([1]; 1.0E−08 M): 94.0% | % of Control Values, Mean ([1]; 1.0E−08 M): 97.9% | % of Control Values, 1st ([1]; 3.0E−07 M): 47.8% | % of Control Values, 2nd ([1]; 3.0E−07 M): 44.9% | % of Control Values, Mean ([1]; 3.0E−07 M): 46.3% | % of Control Values, 1st ([1]; 3.0E−08 M): 108.1% | % of Control Values, 2nd ([1]; 3.0E−08 M): 82.8% | % of Control Values, Mean ([1]; 3.0E−08 M): 95.4% | % of Control Values, 1st ([1]; 3.0E−09 M): 100.2% | % of Control Values, 2nd ([1]; 3.0E−09 M): 113.4% | % of Control Values, Mean ([1]; 3.0E−09 M): 106.8% | % of Control Values, 1st ([1]; 3.0E−10 M): 113.5% | % of Control Values, 2nd ([1]; 3.0E−10 M): 113.3% | % of Control Values, Mean ([1]; 3.0E−10 M): 113.4% | mean terminal plasma concentration of (R)-2-(3,4-dimethoxyphenol)-2-isopropyl-6-azaheptanitril ([2]; R-D617 treated group): 18.5 ng/mL | terminal plasma concentration of R-verapamil after R-D617 treatment ([2]; lower limit of quantification 1 ng/ml): < 1 ng/mL | R-verapamil measured in terminal plasma of the R-D617 treated group ([2]; result in words): no quantifiable R-verapamil | mPAP (Mean +/− SEM) ([3]; measured 21 days after injection, untreated PAH control 36.0, sham 14.7): 30.0 +/− 2.5 mmHg | Right Ventricle Weight (Mean +/− SEM) ([3]; wet weight, untreated PAH control 317.9, sham 167.4): 288.7 +/− 13.4 | inhibition at the majority of the other receptors tested [4]: < 75%

CNCCCC(C#N)(c1ccc(OC)c(OC)c1)C(C)C [D-617, 2-(3,4-dimethoxyphenol)-2-isopropyl-6-azaheptanitril]
cardiovascular potency compared with verapamil [5]: 2.6% | p-glycoprotein transport: substrate / inhibitor (p-glycoprotein): substrate for, but not an inhibitor of | CYP-mediated metabolism: substrate / inhibitor (CYP): substrate for but not a potent inhibitor of | block of HERG-induced currents (HERG): does not block

CN(C)CCCN1c2ccccc2CCc2ccccc21 [imipramine, reference compound]
nH (Hill coefficient) (5-HT transporter (h)): 0.9 and 1.2

COc1ccc(CCNCCCC(C#N)(c2ccc(OC)c(OC)c2)C(C)C)cc1OC (stereo not drawn) [nor-verapamil]
cardiovascular potency compared with verapamil [5]: 21.9%
